This data set can be described thus: Passive permeability and efflux ratio (Caco-2). In kind it is in vitro ADME. The conditions noted are these: human; for efflux ratio at 120 min, 5 μM: pH 7.4, Caco-2, efflux ratio = Papp (B-to-A)/Papp (A-to-B), read-out: ER; for Papp A→B at 120 min, 5 μM: Caco-2, 5 μM, pH 7.4, 120 minutes. The procedure: Caco-2 cells (clone C2BBe1) are obtained, e.g., from American Type Culture Collection (Manassas, VA). Cell monolayers are grown to confluence on collagen-coated, microporous membranes in 12-well assay plates. The permeability assay buffer is Hanks' balanced salt solution containing 10 mM HEPES and 15 mM glucose at a pH of 7.4. The buffer in the receiver chamber also contains 1% bovine serum albumin. The dosing solution concentration is 5 μM of test article in the assay buffer. Cell monolayers are dosed on the apical side (A-to-B) or basolateral side (B-to-A) and incubated at 37° C. with 5% CO2 in a humidified incubator. Samples are taken from the donor and receiver chambers at 120 minutes. Each determination is performed in duplicate. The flux of lucifer yellow is also measured post-experimentally for each monolayer to ensure no damage is inflicted to the cell monolayers during the flux period. All samples are assayed by LC-MS/MS using electrospray ionization. The apparent permeability (Papp) and percent recovery were calculated as follows: Papp=(dCr/dt)×Vr/(A×CA) (1) Percent Recovery=100×((Vr×Cr^final)+(Vd×Cd^final))/(Vd×CN) (2), where, dCr/dt is the slope of the cumulative receiver concentration versus time in μM s^−1; Vr is the volume of the receiver compartment in cm^3; Vd is the volume of the donor compartment in cm^3; A is the area of the insert (1.13 cm^2 for 12-well); CA is the average of the nominal dosing concentration and the measured 120-minute donor concentration in μM; CN is the nominal concentration of the dosing solution in μM; Cr^final is the cumulative receiver concentration in μM at the end of the incubation period; Cd^final is the concentration of the donor in μM at the end of the incubation period. Efflux ratio (ER) is defined as Papp (B-to-A)/Papp (A-to-B). Rat Pharmacokinetics
Caco-2 cells (clone C2BBe1) were obtained from American Type Culture Collection (Manassas, VA). Cell monolayers were grown to confluence on collagen-coated, microporous membranes in 12-well assay plates. Details of the plates and their certification are shown below. The permeability assay buffer was Hanks' balanced salt solution containing 10 mM HEPES and 15 mM glucose at a pH of 7.4. The buffer in the receiver chamber also contained 1% bovine serum albumin. The dosing solution concentration was 5 μM of test article in the assay buffer. Cell monolayers were dosed on the apical side (A-to-B) or basolateral side (B-to-A) and incubated at 37° C. with 5% CO2 in a humidified incubator. Samples were taken from the donor and receiver chambers at 120 minutes. Each determination was performed in duplicate. The flux of lucifer yellow was also measured post-experimentally for each monolayer to ensure no damage was inflicted to the cell monolayers during the flux period. All samples were assayed by LC-MS/MS using electrospray ionization. The apparent permeability (Papp) and percent recovery were calculated as follows: Papp=(dCr/dt)×Vr/(A×CA) (1) Percent Recovery=100×((Vr×Cr^final)+(Vd×Cd^final))/(Vd×CN) (2), where, dCr/dt is the slope of the cumulative receiver concentration versus time in μM s^−1; Vr is the volume of the receiver compartment in cm^3; Vd is the volume of the donor compartment in cm^3; A is the area of the insert (1.13 cm^2 for 12-well); CA is the average of the nominal dosing concentration and the measured 120-minute donor concentration in μM; CN is the nominal concentration of the dosing solution in μM; Cr^final is the cumulative receiver concentration in μM at the end of the incubation period; Cd^final is the concentration of the donor in μM at the end of the incubation period. Efflux ratio (ER) is defined as Papp (B-to-A)/Papp (A-to-B).
(In general: Caco-2 cells form a polarised layer with tight junctions and transporters.)

In the case of `N#Cc1ccc(COc2cccc(N3CCN(Cc4nc5ccc(C(=O)O)cc5n4Cc4cncs4)[C@@H]4C[C@@H]43)n2)c(F)c1` (single isomer, unassigned) [Compound 1, 2-((5-(6-((4-cyano-2-fluorobenzyl)oxy)pyridin-2-yl)-2,5-diazabicyclo[4.1.0]heptan-2-yl)methyl)-1-(thiazol-5-ylmethyl)-1H-benzo[d]imidazole-6-carboxylic Acid], the efflux ratio at 120 min, 5 μM worked out at 2.51 and the Papp A→B – broadly, how fast a substance crosses the layer from the apical side – at 120 min, 5 μM was 15 ×10⁻⁶ cm/s.
For `N#Cc1ccc(COc2cccc([C@@H]3CCN(Cc4nc5ccc(C(=O)O)cc5n4Cc4cncs4)[C@@H]4C[C@@H]43)n2)c(F)c1` (single isomer, unassigned) [Compound 5, 2-((5-(6-((4-Cyano-2-fluorobenzyl)oxy)pyridin-2-yl)-2-azabicyclo[4.1.0]heptan-2-yl)methyl)-1-(thiazol-5-ylmethyl)-1H-benzo[d]imidazole-6-carboxylic Acid], the efflux ratio at 120 min, 5 μM was found to be 1.71 and the Papp A→B at 120 min, 5 μM stood at 27.9 ×10⁻⁶ cm/s.
Taken in the same sequence, the figures for `CC1(c2ccc(C#N)cc2F)Oc2cccc(C3CCN(Cc4nc5ccc(C(=O)O)cc5n4Cc4cncs4)CC3)c2O1` (centres unmarked) [Compound 18] were 1.31 and 16.8 ×10⁻⁶ cm/s.
As for `CC1(c2ccc(C#N)cc2F)Oc2cccc(N3CCN(Cc4nc5ccc(C(=O)O)cc5n4CC4(C#N)CC4)C4CC43)c2O1` (centres unmarked) [Compound 40, 2-((5-(2-(4-Cyano-2-fluorophenyl)-2-methylbenzo[d][1,3]dioxol-4-yl)-2,5-diazabicyclo[4.1.0]heptan-2-yl)methyl)-1-((1-cyanocyclopropyl)methyl)-1H-benzo[d]imidazole-6-carboxylic Acid], the efflux ratio at 120 min, 5 μM is 2.27 and the Papp A→B at 120 min, 5 μM is 17.5 ×10⁻⁶ cm/s.

For the origin of these results see US12410163B2, “Compounds as GLP-IR agonists” (Terns Pharmaceuticals, Inc., priority 2022, dated 2025).
